Results reported in patent US20180244653A1, “SELECTIVE ALPHA-7 NICOTINIC RECEPTOR AGONISTS AND METHODS FOR MAKING AND USING THEM” (THE REGENTS OF THE UNIVERSITY OF CALIFORNIA, priority 2015, published 2018).
Values joined by “and” are separate entries in the source; they are usually repeats but may differ in a detail not shown here. Identical values can stand only once. “Also recorded” adds a separate entry of the source. Like-named read-outs stand apart in the source and are kept apart here.

Experiments:
[1] = target: α7/5HT3A chimera receptor (hα7/m5HT3A), used for α7-nAChRs (UniProt P23979+P36544, M226I/T225I); assay: Intact cell competitive radioligand binding assay ([3H]-(±)-epibatidine, SPA), LGIC-CNiFERs; details: read-out: Kd ± SD, α7-nAChRs; >10 = did not pass initial screen at 10 μM
5HT3A receptors [2] = target: T1, 5HT3A receptors (Mus musculus, UniProt P23979); assay: FRET functional assay (agonist/antagonist) using LGIC-CNiFERs; assay type: cell-based; details: for Functional properties at 5HT3A receptors (agonist / antagonist, type): functional screening and characterization; for EC50: read-out: Agonist EC50 ± SD, 5HT3A
T1 construct: expressed in transfected cells; host or cells: HEK293 cells co-expressing TN-XXL
T1 sequence (P23979 24-489): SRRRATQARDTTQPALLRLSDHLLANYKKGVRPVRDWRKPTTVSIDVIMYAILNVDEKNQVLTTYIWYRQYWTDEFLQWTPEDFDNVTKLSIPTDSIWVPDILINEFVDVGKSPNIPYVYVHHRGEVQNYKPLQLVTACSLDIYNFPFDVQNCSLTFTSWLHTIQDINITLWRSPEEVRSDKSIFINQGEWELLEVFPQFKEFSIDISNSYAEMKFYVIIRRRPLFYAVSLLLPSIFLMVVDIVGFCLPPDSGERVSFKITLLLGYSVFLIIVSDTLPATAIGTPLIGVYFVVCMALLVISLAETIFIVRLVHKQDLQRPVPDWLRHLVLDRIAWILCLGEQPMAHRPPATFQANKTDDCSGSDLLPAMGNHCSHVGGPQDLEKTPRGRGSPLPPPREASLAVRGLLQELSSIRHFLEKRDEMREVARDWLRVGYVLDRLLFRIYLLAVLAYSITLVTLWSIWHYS
Experimental: (§1) Initially, the agonist properties of tested compounds were assessed directly. […] All α7-nAChR functional assays were performed in the presence of PNU-120596, an α7-nAChR positive allosteric modulator (PAM), to increase signal and delay the sensitization state of α7-nAChRs enabling the measurement of more prolonged FRET signals.^29 Compounds having agonist responses of >0.20 were determined for EC50, and compounds having inhibition fraction of >0.50 were determined for KA.^25 EC50>13.3 μM and KA>10 μM which are a screening concentration for agonist and antagonist, respectively were reported compounds not taken for further in the screening of receptor occupation and responses.
(§2) Agonist and antagonist elicited responses were characterized using the above CNiFER cell expressing Cys-loop ligand-gated ion channel (LGIC) receptors. […] A 96-well black, clear-bottom microplate (Greiner bio-one, Germany) was coated with poly-D-lysine (Sigma-Aldrich, St. Louis, Mo.) 50 μL/well for 30 min and washed out with Phosphate-Buffered Saline (PBS) (Corning, Cellgro, Manassas, Va.) before plating the cells. After plating and incubation at 37° C. for 1 day, the media was replaced with 100 μL of artificial cerebrospinal fluid (aCSF: 121 mM NaCl, 5 mM KCl, 26 mM NaHCO3, 1.2 mM NaH2PO4H2O, 10 mM glucose, 2.4 mM CaCl2, 1.3 mM MgSO4, 5 mM HEPES, pH 7.4) for 4032 and 5HT3A receptors, whereas 10 μM PNU-120596 (Tocris Bioscience, Bristol, UK) in aCSF with 30 min incubation at 37° C. was used for α7-nAChR. The tested compounds were prepared in aCSF for all receptors except α7-nAChR, where 10 μM PNU-120596, a positive allosteric modulator (PAM) was used. The prepared compounds were added in a separate 96-well polypropylene plate (Costar, Corning, N.Y.). Experiments were conducted at 37° C. using 436-nm excitation. Emitted light was collected at 485 nm and 528 nm. Basal fluorescence was recorded for 30 s, followed by addition of 50 μL of ligand (first addition). Measurements were made at 3.84 s intervals for 2 min to measure the agonistic effect. […] Agonist and antagonist properties were sequentially screened at the final concentration of 13.3 and 10 μM, respectively, which differed from the screening concentration from intact cell binding assay (10 μM).

α7-nAChRs = target: T2, α7-nAChRs (Homo sapiens, UniProt P36544); assay: as above; assay type: cell-based; details: for EC50: in presence of 10 μM PNU-120596, * partial agonist, read-out: Agonist EC50 ± SD, α7
T2 construct: expressed in transfected cells; host or cells: HEKtsA201 cells co-expressing TN-XXL
Experimental: as §1, §2

α4β2-nAChRs = target: T3, α4β2-nAChRs (Homo sapiens, UniProt P17787+P43681); assay: as above; assay type: cell-based; details: for Functional properties at α4β2-nAChRs (agonist / antagonist, type): functional screening and characterization; for Antagonist KA ± SD, α4β2, non-competitive: non-competitive antagonist (^NC)
T3 construct: expressed in transfected cells; host or cells: HEKtsA201 cells co-expressing TN-XXL
Experimental: as §1, §2

5HT3A receptors [3] = target: T1, 5HT3A receptors; assay: Intact cell competitive radioligand binding assay ([3H]-granisetron, SPA), LGIC-CNiFERs; details: >10 = did not pass initial screen at 10 μM; read-out: Kd ± SD, 5HT3A
[4] = competitive antagonist (^C), >10 = did not pass initial screen, vs 5-HT, read-out: Antagonist KA ± SD, 5HT3A
[5] = >10 = did not pass initial screen
[6] = read-out: Antagonist KA ± SD, α4β2
[7] = competitive antagonist (^C), >10 = did not pass initial screen, vs (±)-epibatidine, read-out: Antagonist KA ± SD, α7
[8] = read-out: Antagonist KA ± SD, α4β2, non-competitive
[9] = * partial agonist, >10 = did not pass initial screen
[10] = competitive antagonist (^C), >10 = did not pass initial screen, vs (±)-epibatidine
[11] = competitive antagonist (^C), >10 = did not pass initial screen, vs (±)-epibatidine, read-out: Antagonist KA ± SD, α4β2
[12] = Antagonist KA ± SD, α4β2, competitive antagonist (^C), >10 = did not pass initial screen, vs (±)-epibatidine

Compound | Kd [1] [µM] | Kd (5HT3A receptors [2]; [4]) | Functional properties at 5HT3A receptors (agonist / antagonist, type) (5HT3A receptors [2]) | EC50 (α7-nAChRs; [5]) | Kd (α4β2-nAChRs; [6]) [µM] | EC50 (5HT3A receptors [2]) [µM] | other results
COC(=O)c1cc(-c2cn(CCN3CCCCC3)nn2)ccc1N [PPRD15, Methyl 2-amino-5-(1-(2-(piperidin-1-yl)ethyl)-1,2,3-triazol-4-yl)benzoate] | 4.4 | 6 µM | competitive antagonist | 3.1 µM | > 10 |  | 
COC(=O)c1cc(-c2cn(CCN3CCCCC3)nn2)ccc1O [PPRD14, Methyl 2-hydroxy-5-(1-(2-(piperidin-1-yl)ethyl)-1,2,3-triazol-4-yl)benzoate] | > 10 | 1.44 µM and 1.4 µM | competitive antagonist | > 10 µM | > 10 |  | Kd (α7-nAChRs; [7]): > 10 µM
CN(C)CCn1cc(-c2ccc3[nH]ccc3c2)nn1 [IND12, 5-(1-(2-(N,N-Dimethylamino)ethyl)-1H-1,2,3-triazol-4-yl)-1H-indole] | 7.68 |  | mix-competitive antagonist | 5.74 µM |  |  | 
CN1CCCC(n2cc(-c3ccc4[nH]ccc4c3)nn2)C1 (centres unmarked) [IND11, 5-(1-(1-Methylpiperidin-3-yl)-1H-1,2,3-triazol-4-yl)-1H-indole] | 5.07 |  |  | 3.3 µM |  |  | 
O=Cc1c[nH]c2ccc(-c3cn(CCN4CCCCC4)nn3)cc12 [PPRD5, 5-((1-(2-Piperidin-1-yl)ethyl)-1,2,3-triazol-4-yl)-indole-3-carbaldehyde] | 3.27 | > 10 µM |  | 1.05 ± 0.17 µM | > 10 | > 10 | 
c1cc2cc(-c3cn(CCN4CCCC4)nn3)ccc2[nH]1 [IND13, 5-(1-(2-(Pyrrolidin-1-yl)ethyl)-1H-1,2,3-triazol-4-yl)-1H-indole] | 4.84 |  |  | 2.17 µM |  |  | 
c1cc2cc(-c3cn(CCCN4CCCCC4)nn3)ccc2[nH]1 [IND2, 5-(1-(3-(Piperidin-1-yl)propyl)-1H-1,2,3-triazol-4-yl)-1H-indole] | 7.2 |  | agonist and antagonist responses were not observed | 2.2 µM |  |  | 
CN1[C@@H]2CCC[C@H]1CC(n1cc(-c3ccc4[nH]ccc4c3)nn1)C2 (stereo partly drawn) [IND7, 5-(1-((1R,5S)-9-Methyl-9-azabicyclo[3.3.1]nonan-3-yl)-1H-1,2,3-triazol-4-yl)-1H-indole] | 4.52 |  | agonist and antagonist responses were not observed |  |  |  | Functional properties at α4β2-nAChRs (agonist / antagonist, type) (α4β2-nAChRs): weak antagonistic properties; Kd (α4β2-nAChRs; [8]): 22.2 µM
Clc1ccc(-c2cn(C3CN4CCC3CC4)nn2)cc1 (centres unmarked) [QND13, 3-(4-chlorophenyl-1,2,3-triazol-1-yl)quinuclidine] |  |  | 5HT3A receptor agonist properties | 1.01 µM |  |  | EC50 (5HT3A receptors [2]; [9]): 4.9 ± 1.2 µM; Antagonist KA ± SD, α4β2 (α4β2-nAChRs; [10]): 11.2 ± 2.6^C, μM; Functional properties at α4β2-nAChRs (agonist / antagonist, type) (α4β2-nAChRs): mix-competitive antagonist; Antagonist KA ± SD, α4β2, non-competitive (α4β2-nAChRs): 23 ± 6^NC μM
Nc1ccc(-c2cn(CCN3CCCCC3)nn2)cc1 [PPRD8, 1-(2-(4-Aminophenyl-1,2,3-triazol-1-yl)ethyl)piperidine] |  | 39 µM | competitive antagonist | 2.9 µM |  |  | Kd (α4β2-nAChRs; [11]): >10 µM
c1cc2cc(-c3cn(CCN4CCCCC4)nn3)ccc2[nH]1 [IND1, 5-(1-(2-(Piperidin-1-yl)ethyl)-1H-1,2,3-triazol-4-yl)-1H-indole] |  | > 10 µM | agonist and antagonist responses were not observed | 0.17 µM | > 10 | > 10 | Fold increase in α7-nAChR agonist potency over lead compound TTIn-1 (α7-nAChRs): 3.5 fold; Kd (5HT3A receptors [3]): 5.52 µM
Nc1ncnc2c1ncn2Cc1cn(CCN2CCCCC2)nn1 [PPRD10, 9-((1-(2-(Piperidin-1-yl)ethyl)-1,2,3-triazol-4-yl)methyl)-purin-6-amine] |  | > 10 µM |  | > 10 µM | > 10 | > 10 | Kd (α7-nAChRs; [7]): 11.6 µM; Kd (α7-nAChRs; non-competitive antagonist (^NC), read-out: Antagonist KA ± SD, α7, non-competitive): 18.9 µM
COC(=O)c1ccc2[nH]cc(-c3cn(C4CN5CCC4CC5)nn3)c2c1 (centres unmarked) [QND11, Methyl 3-(1-(quinuclidin-3-yl)-1,2,3-triazol-4-yl)-indole-5-carboxylate] |  |  | antagonists; also recorded: non-competitive antagonist | 1.61 ± 0.36 µM |  |  | Kd (5HT3A receptors [2]; non-competitive antagonist (^NC), read-out: Antagonist KA ± SD, 5HT3A, non-competitive): 0.08 ± 0.01 µM; Kd (α4β2-nAChRs; [12]): 9.3 ± 4.3 µM; Functional properties at α4β2-nAChRs (agonist / antagonist, type) (α4β2-nAChRs): competitive antagonism; Kd (α4β2-nAChRs; [8]): 37 ± 22 µM
Cn1ccc2cc(-c3cn(CCN4CCCCC4)nn3)ccc21 [PPRD9, 1-(2-((1-Methyl-5-indolyl)-1,2,3-triazol-1-yl)ethyl)piperidine] | 12.1 |  | mixed (competitive,non-competive) antagonist | 12.9 µM |  |  | Antagonist KA ± SD, 5HT3A (5HT3A receptors [2]; competitive antagonist (^C), >10 = did not pass initial screen, vs 5-HT): 15.1 ± 4.0^C, μM; Antagonist KA ± SD, 5HT3A, non-competitive (5HT3A receptors [2]; non-competitive antagonist (^NC)): 56.0 ± 31.0^NC μM; Antagonist KA ± SD, α4β2 (α4β2-nAChRs; [10]): 10.5 ± 3.1^C,^ μM; Functional properties at α4β2-nAChRs (agonist / antagonist, type) (α4β2-nAChRs): α4β2-nAChR antagonists; also recorded: mix-competitive antagonist; Antagonist KA ± SD, α4β2, non-competitive (α4β2-nAChRs): 25.5 ± 12.8^NC μM
c1cc2c(cc1-c1cn(CCN3CCCCC3)nn1)OCO2 [PPRD1, 1-(2-(4-(Benzo-1,3-dioxol-5-yl)-1,2,3-triazol-1-yl)ethyl)piperidine] |  | > 10 µM |  | 7.4 ± 0.7 µM | > 10 | > 10 | 
Nc1ncnc2c1ncn2Cc1cn(C2CN3CCC2CC3)nn1 (centres unmarked) [QND10, 9-((1-(Quinuclidin-3-yl)-1,2,3-triazol-4-yl)methyl)-purin-6-amine] |  | > 10 µM |  | 29.5 µM and 30 µM |  | > 10 | Kd (α4β2-nAChRs; [12]): > 10 µM
Nc1ccc(-c2cn(CCN3CCCCC3)nn2)cc1 [PPRD2, 1-(2-(4-Aminophenyl-1,2,3-triazol-1-yl)ethyl)piperidine] |  | >10 µM |  | 0.38 µM |  |  | EC50 (5HT3A receptors [2]; [9]): > 10 µM; Kd (α4β2-nAChRs; [11]): >10 µM
COc1ccc(-c2cn(CCN3CCCCC3)nn2)cc1 [PPRD3, 1-(2-(4-(4-Methoxyphenyl)-1,2,3-triazol-1-yl)ethyl)piperidine] |  | > 10 µM |  | 15 µM | > 10 | > 10 | Functional properties at α7-nAChRs (agonist / antagonist) (α7-nAChRs; functional screening and characterization): partial agonists
c1cc2cc(-c3cn(CCCCN4CCCCC4)nn3)ccc2[nH]1 [IND3, 5-(1-(4-(Piperidin-1-yl)butyl)-1H-1,2,3-triazol-4-yl)-1H-indole] | 13.8 |  |  | 0.91 µM |  |  | 
